88 molecules from a melting point compilation (Tetko et al.; mined from patent text by program, amines drawn as free bases though some values may be those of a salt) can be followed below.

On to `CC(C)c1ccc(C2(OC(=O)C(C)(C)C)C(=O)c3ccccc3C2=O)c(OC(=O)C(C)(C)C)c1`, for which the melting point fell in the range of 121 to 124 °C.
With `COC(=O)c1ccc(CC2=CCc3ccc(NC(=O)CC4CCCC4)cc32)c(OC)c1`, the melting point is 178 to 179 °C.
The result for `CCCCCCCNC(=O)N(C)c1cccc(-c2ccc(C=C(OC)C(=O)O)cc2OCCCC)c1` reads 99 °C; that for `Nc1nc(/C(=N/OC23CC4CC(CC(C4)C2)C3)C(=O)O)cs1`, 203 to 204 °C.
The result for `C[C@@](O)(C(=O)Nc1ccc(S(=O)(=O)c2ccccc2S(C)(=O)=O)cc1Cl)C(F)(F)F` reads 114 to 116 °C.
`COC(=O)C(=O)c1ccc(OCc2ccc3ccccc3c2)cc1`: the melting point was in the range of 101 to 102 °C.
As for `Cc1c(S(N)(=O)=O)c(C(F)(F)F)nn1C`, the melting point fell in the range of 204 to 206 °C.
As for `CC(C)=CCNC(=O)Cn1ccnc1[N+](=O)[O-]`, the figure is 174 to 176 °C; as for `COc1cc2c(c(OC)c1OC)CC(CCCCCCC1Cc3cc(OC)c(OC)c(OC)c3C1)C2` (stereo not drawn), 69 to 70 °C; as for `O=C(NC(C(=O)O)C(=O)O)OCc1ccccc1`, 144 to 145 °C.
The result for `CCCN(CCC)c1c(CC)nn2c(-c3c(C)cc(C)cc3OC)cccc12` reads 72.3 to 74.6 °C; that for `CC(=NOCCOc1ccc(CC2SC(=O)NC2=O)cc1)c1ccc(O)nc1` (stereo not drawn), 240 to 242 °C; that for `CCc1cnn(CC(=O)O)c1OCCCc1cn(-c2ccc(C(F)(F)F)cn2)nc1C(CC)CC`, 124 to 125 °C.
As for `COc1ccc2cc(C=O)ccc2c1Br`, the figure is 133 to 135 °C.
The molecule `CCOc1ccc2ccccc2c1C(=O)N[C@H](Cc1ccc(C(F)(F)F)cc1)[C@H](O)c1ccc(F)cc1` (racemic) returned a melting point of 157 to 158 °C.
As for `COc1ccc2c(c1)c1c3c(c(-c4ccccc4)cc1n2CCCCCCO)C(=O)NC3=O`, the figure is 170 to 173 °C.
As for `CN(c1cc(N2C(=O)C3CC(Cl)CN3C2=O)c(F)cc1Cl)S(=O)(=O)CCl` (stereo not drawn), the figure is 119 to 124 °C; as for `O=c1c2cc(F)ccc2nc(NCc2ccccc2F)n1-c1ccccc1Cl`, 163 to 165 °C; as for `CNC1CCc2[nH]c3cccc(C)c3c2C1` (stereo not drawn), 163 to 166 °C.
As for `COc1cc2c(nc1OC)c(-c1cc3cc(F)cnc3[nH]1)cn2CCN1CCOCC1`, the figure is 218 °C; as for `COc1cc2c(cc1OC)C1(CCN(CCc3ccc([N+](=O)[O-])cc3)CC1)N(Cc1ccc([N+](=O)[O-])cc1)CC2=O`, 174 to 177 °C.
The molecule `COc1ccc2nc(N3CCNCC3)ccc2c1` returned a melting point of 95 to 97 °C.
As for `COc1c(Cl)cc(-c2cc(F)c(F)cc2-c2ccc(S(N)(=O)=O)cc2)cc1Cl`, the figure is 146 °C; as for `Fc1ccc(Oc2cc3c(Cl)nc(Cl)nc3cn2)c(F)c1`, 144 to 146 °C.
`O=C1CCN2C(=O)OCc3cccc1c32` yielded a melting point of 130 to 131 °C.
The result for `Cc1cc(Oc2ncc(C(F)(F)F)cc2Cl)nn1C(=O)Nc1ccccc1` reads 116 to 118 °C.
The result for `CN1CCN(C)c2c(N)cccc2C1=O` reads 165 to 166 °C.
As for `Cc1ccc(-c2ccccc2)cc1Cn1c(Cl)nn(C)c1=O`, the figure is 116 °C.
`O=c1[nH]c2ccc(-c3cccc(Cl)c3)cc2s1` displayed a melting point of 195 to 196 °C.
Molecule `COc1ccc2c(c1)[C@@]1(C(=O)O)CC=CC[C@H]1CC2` (relative stereo) displayed a melting point of 125 °C.
`O=C(c1ccc(Cn2cnc3ccncc32)cc1)N1CCOCC1`: the melting point is 143 to 144 °C.
As for `C[C@H](NC(=O)OCc1ccccc1)C(=O)N1CCC[C@H]1C(=O)Nc1ccccc1`, the figure is 138 to 139 °C; as for `O=C(N[C@H](Cc1ccccc1)C(=O)O)OCc1cc2cc(-c3ccccc3)ccc2[nH]1`, 168 to 174 °C; as for `CC(C)c1onc(-c2ccccc2)c1S(=O)(=O)c1ccc(O)cc1`, 173 to 174 °C.
The result for `CS[C@H]([C@@H](C)C(=O)O)[C@@H]1CCCN1C(=O)OC(C)(C)C` reads 141 to 142 °C; that for `CCCCCCCCCCCCCCCCCC[C@@H]1OC(=O)C(O)=C1O`, 110 to 112 °C; that for `Nc1cc(N2CCCCC2)c(F)cc1[N+](=O)[O-]`, 112 to 113 °C.
As for `COC(=O)c1nc(-c2ccc(Cl)cc2F)nc(N)c1Cl`, the figure is 194 to 196 °C; as for `Cc1ccc2sc(S(N)(=O)=O)cc2c1`, 212 to 213 °C.
Consider `BrCc1cccc2c(-c3ccccc3)c(Br)oc12`, for which the melting point is 135 to 138 °C.
The result for `COc1ccc(C2CCOCC2)cc1NC(=S)c1ncc[nH]1` reads 189 to 190 °C; that for `COc1ccc2nc(NC(=O)C(CC3CCCC3)c3ccc(S(=O)(=O)N4CCOCC4)cc3)sc2n1` (stereo not drawn), 120 to 123 °C; that for `CCOC(=O)c1cnc2c(O)cccc2c1`, 118 °C.
Consider `N#Cc1ccc(C2=NOC(CO)C2)c2ccccc12` (stereo not drawn), for which the melting point lay within 138 to 139 °C.
As for `C=CCn1c(C)nc2c3c(c(C(=O)OCC)cc21)C(=O)CC1(Cc2ccccc2C1)N3`, the figure is 183 to 184 °C.
As for `OCc1ccc2cc(O)ccc2c1`, the figure is 179 to 181 °C.
As for `Cc1cc(C=NN2CCNC2=O)no1`, the melting point lay within 195 to 197 °C.
As for `CN(NC=C1CSc2ccc(Cl)cc2C1=O)C(=O)OC(C)(C)C`, the figure is 121 to 124 °C; as for `CN1CC=C(c2cc3cc(Cl)ccc3o2)CC1`, 108 to 118 °C; as for `CC(C)(C)C(NC(=O)Cc1ccc(Cl)cc1)NC(Cc1cccc2ncccc12)=NC#N` (stereo not drawn), 186 to 188 °C.
As for `COc1ccc(-c2[nH]cnc2-c2cc(OC)c(N)c(OC)c2)cc1O`, the figure is 142 to 144 °C.
The result for `CCOC(=O)CCCSc1nccc(NC(N)=NCC(F)(F)F)n1` reads 120 to 122 °C; that for `COC(=O)CCn1c(=O)n2n(c1=O)C(C(=O)OC(C)(C)C)C=CC2` (stereo not drawn), 77 to 78 °C.
With `CCn1c(N)c(-c2ncc[nH]2)c(=O)c2ccc(-c3ccc(C(C)C(=O)NCc4ccncc4)cc3)nc21` (stereo not drawn), the melting point was found to be 186 °C.
`COc1cccc2c1C=C(C(=O)O)C(CC(F)(F)F)O2` (stereo not drawn) came in with a melting point of 204 to 207 °C.
As for `NS(=O)(=O)c1ccc(-c2oc(Cl)nc2-c2ccccc2)cc1`, the figure is 158 to 159 °C; as for `COC(=O)C(C)(C)S(=O)(=O)N1CC=C(c2ccc(Br)c(C)c2)CC1`, 100 to 101 °C; as for `OC(c1cc(-c2ccc(F)cc2)c(-c2ccc(F)cc2)[nH]1)C(F)(F)F` (stereo not drawn), 121 to 122 °C.
The result for `CC(C)c1cccc(C(C)C)c1N1C(=O)c2cccc3c(C#N)ccc(c23)C1=O` reads 291 °C.
Consider `C=CCc1cc(C)cc(C(Nc2ccc(C(=N)N)cc2)C(=O)O)c1OCCO` (racemic), for which the melting point turned out to be 228 °C.
As for `O=C1Nc2cc(Cl)ccc2C(=O)C1c1coc2ccccc12` (stereo not drawn), the figure is 290 °C; as for `Cc1nsc(NC(=O)Cc2ccc3oc(CC(C)(C)C)nc3c2)c1Cl`, 144 to 145 °C.
The result for `N#Cc1nn(-c2c(Cl)cc(C(F)(F)F)cc2Cl)c(Cl)c1C#CBr` reads 153 °C; that for `Clc1ccc2c(c1)N(CC#CCN1CCCC1)c1ccccc1S2`, 48 to 50 °C; that for `CCCCN(CCCC)C(=O)c1cc(C(C)(C)C)c(O)c(C(C)(C)C)c1`, 94 to 95 °C.
The result for `CC(=O)N(CC(=O)N1c2ccccc2N(Cc2ccccc2)C(=O)[C@H]2CCC[C@H]21)C(=O)CCc1ccccc1` (relative stereo) reads 138 to 140 °C; that for `CS(=O)(=O)c1ccc(Oc2cc(OCc3ccccc3)c3[nH]c(C4=NCC(CC(=O)O)S4)cc3c2)cc1` (stereo not drawn), 218 to 219 °C; that for `Cc1cncc(C)c1-c1c(C)cc(OS(=O)(=O)C(F)(F)F)cc1C`, 68 to 69 °C.
Regarding `Cc1nc(Cl)cc(C2(c3ccc(Cl)cc3)CCC2)n1`, the melting point lay in the range of 96 to 98 °C.
As for `CC(=O)c1ccc(CCOc2ccc(CC3SC(=O)NC3=O)cc2)nc1` (stereo not drawn), the figure is 114 to 115 °C; as for `Cc1ccc(NC(=O)c2ccccc2SSc2ccccc2C(=O)Nc2ccc(C)c(C)c2)cc1C`, 224 to 227 °C.
As for `CC(C)(C)c1cc(C(=O)c2cccs2)cc(CN2CCSCC2)c1O`, the figure is 165 to 166 °C.
As for `CNS(=O)(=O)c1cnc2ccc(OC)cc2c1O`, the figure is 293 to 294 °C.
`CC1(C)CC(=O)C(C(=O)NS(=O)(=O)c2ccccc2)C(=O)C1` returned a melting point of 101 to 103 °C.
As for `COc1cc(CN2CCN(c3ccc(O)cc3)CC2)nc(-c2ccccc2)n1`, the figure is 166 to 167 °C; as for `O=c1ccc2ccc(OCCCCN3CCN(c4cccc5cc(Cl)ccc45)CC3)nc2[nH]1`, 208 to 209 °C; as for `CC(=O)SCC(CSC(C)=O)C(=O)N(CC(=O)O)C1Cc2ccccc2C1`, 114 to 115 °C.
As for `COc1ccc(-c2nc(-c3ccccc3)c3ncc(Cl)cc3n2)cc1`, the figure is 193 to 194 °C; as for `CNc1ncc2cc(-c3c(Cl)cccc3Cl)c(=O)n(C)c2n1`, 243 to 244 °C.
The result for `COc1cccc(C(CN2CCN(c3cncc(Cl)n3)CC2)C2(O)CCCCC2)c1` (stereo not drawn) reads 157 to 158 °C; that for `Cc1cccc(C)c1N1CCc2c(C)nc3ccccc3c21`, 149 to 152 °C.
In turn, `O=C1C(Cl)=CC(=NS(=O)(=O)c2cccs2)c2ccccc21` gave a melting point of 167 to 169 °C.
The result for `C[C@@H](c1ccc(F)cc1)N1CCN(c2cc(Nc3ccc4cccnc4c3)ncn2)CC1` reads 206 to 207 °C.
`Cc1oc(-c2ccco2)nc1CCOc1ccc(C#N)cc1` yielded a melting point of 105 to 108 °C.
The result for `CN1C(=O)C(=NO)C(=NCCCCCC(=O)O)N(C)C1=O` reads 246 to 248 °C; that for `Cc1oc(-c2ccccc2)nc1COc1ccc(COc2ccc(Br)cc2CC(=O)O)cc1`, 162 to 163 °C.
As for `CN1CCn2c1nc(C(=O)NCc1ccc(F)cc1)c(O)c2=O`, the figure is 212 °C; as for `CN(C)C(=O)N1CCC(C(=O)N(CCCN2CCC(Cc3ccccc3)CC2)c2ccc(Cl)c(Cl)c2)CC1`, 109 to 112 °C.
